The record followed here is paper PMC12362587, “Untargeted Diversity-Oriented Synthesis for the Discovery of New Antitumor Agents: An Integrated Approach of Inverse Virtual Screening, Bioinformatics, and Omics for Target Deconvolution” (Journal of Medicinal Chemistry, 2025).

One series in a line: MTT cell viability assay. In kind it is cell-based, human. To be noted: human, HaCaT keratinocyte cells (healthy control line), 24 h, compounds 0.01–40 μM, healthy control line, read-out: In Vitro Cytotoxicity, EC50 ± SD, HaCaT. The source says:
Initially, we phenotypically screened the synthesized compounds over a panel of tumor cell lines composed of HEPG2, A375, SHSY5Y, MCF7, and A549 derived from liver tumor, melanoma, neuroblastoma, breast cancer, and lung adenocarcinoma, respectively. We also considered the HaCaT cell line, coming from keratinocytes, as a healthy control line. As reference, cytotoxic chemotherapeutic agent 5-fluorouracil (5-FU) has been used. The results obtained performing the MTT (3-(4,5-dimethylthiazolyl-2)-2,5-diphenyltetrazolium bromide) assay are summarized in Table .
The human neuroblastoma SHSY5Y, melanoma A375, human breast cancer MCF7, nonsmall lung cancer A549, and human epidermal keratinocyte HaCaT cell lines were obtained from ATCC and were grown in Dulbecco’s Modified Eagle Medium (DMEM) supplemented with 10% (v/v) FBS, 2 mM L-glutamine, 100 U/mL penicillin, and 0.1 mg/mL streptomycin.
Cell viability was established by measuring mitochondrial metabolic activity with MTT. In brief, HEPG2 (1 × 10^4 cells/well), A375 (2 × 10^3 cells/well), HaCaT (3 × 10^3 cells/well), A549 (3 × 10^3 cells/well), SHSY5Y (2 × 10^4 cells/well), and MCF 7 (5 × 10^3 cells/well) were plated into 96-well plates for 24 h, then the compounds (0.01–40 μM) were added. After 24h, cells were replaced with a fresh medium containing 0.5 mg/mL MTT. Cells were incubated 1–3 h at 37 °C, then the medium was discarded, and formazan blue crystals in the cells were dissolved in 100 μL per well of a solution containing isopropanol/HCl 0.1 M. The absorbance was measured at 570 nm using a microplate reader (Multiskan Go, Thermo Scientific, Waltham, MA, USA). Cell viability was expressed as a percentage relative to the untreated cells cultured in medium with 0.1% DMSO and set to 100%, whereas 10% DMSO was used as positive control and set to 0% of viability. The EC50 values were calculated using GraphPad Prism 8.0 software by nonlinear regression of dose–response inhibition.
Background: Tetrazolium dyes change colour on reduction, which living cells bring about.

Series [1] deals with T1, isocitrate dehydrogenase (IDH1 R132H) (Homo sapiens, UniProt O75874, R132H).
T1 construct: purchased BPS Bioscience
In words: IDH1 enzyme assay (R132H; BPS Bioscience). In kind it is biochemical. The following applies: top concentration 30 μM. The protocol:
The assay was performed in a volume of 100 μL in a 96-well black plate. The IDH1 enzyme assay (R132H; BPS Bioscience, USA) was designed to measure IDH1 enzyme activity by measuring NADPH consumption. For activity measurement, the enzyme (final concentration, 2.5 ng per reaction), α-ketoglutarate (IDH1 substrate; final concentration, 4 mM), NADPH (final concentration, 500 μM), and compounds were incubated for 1 h at room temperature. The compounds were added at different concentrations in the reaction buffer, starting from a final concentration of 30 μM. Buffer with the same amount of DMSO (1%) was used as a negative control. After the incubation time, NADPH detection reagent was added for 5 min at room temperature. The fluorescence signals (excitation/emission, 544 nm/600 nm) were read using a PerkinElmer EnSpire multimode plate reader (PerkinElmer, Waltham, MA, USA). The experiments were performed in triplicate. The IC50 values were calculated using GraphPad Prism 8.0 software by nonlinear regression of dose–response inhibition.

For another series, the target named is human CB2R (Homo sapiens, UniProt P34972). Nature of the series: cAMP Hunter assay, functional activity at CB2R. Type of series: cell-based. On the set-up: host or cells: CHO-K1. To be noted: CHO cells expressing human CB2R, alone and with JWH133. On the procedure: The curves show the effect of increasing concentrations of the compound on NKH-477-induced cAMP levels in stable CHO cells expressing the human CB2R. The effect of JWH-133 is reported as a reference compound. Data are reported as means ± standard error of three independent experiments conducted in triplicate and normalized considering the NKH-477 stimulus alone as 100% of the response as indicated in the experimental session. EC50 was determined by GraphPad Prism 9 as the concentration that provokes the response halfway between the baseline (bottom) and maximum response (top) of the fitted dose–response.
The functional activity at CB2Rs was evaluated using the cAMP Hunter assay with an enzyme fragment complementation chemiluminescent detection kit, as previously reported. Following the manufacturer’s instructions, this assay measured Gi-coupled cAMP modulation in CB2R-expressing cell lines (DiscoveRx, Fremont, CA). Briefly, CHO-K1 cells overexpressing the human CB2Rs were plated in a 96-well plate at a density of 10,000 cells per well and incubated overnight at 37 °C in 5% CO2. […] Following stimulation, the cells were lysed, and cAMP levels were detected according to the manufacturer’s protocol. Luminescence was measured using the GloMax Multi-Detection System (Promega, Italy). Results were expressed as mean ± SEM and derived from three independent experiments conducted in triplicate. […]

T1 sequence (O75874 whole entry R132H): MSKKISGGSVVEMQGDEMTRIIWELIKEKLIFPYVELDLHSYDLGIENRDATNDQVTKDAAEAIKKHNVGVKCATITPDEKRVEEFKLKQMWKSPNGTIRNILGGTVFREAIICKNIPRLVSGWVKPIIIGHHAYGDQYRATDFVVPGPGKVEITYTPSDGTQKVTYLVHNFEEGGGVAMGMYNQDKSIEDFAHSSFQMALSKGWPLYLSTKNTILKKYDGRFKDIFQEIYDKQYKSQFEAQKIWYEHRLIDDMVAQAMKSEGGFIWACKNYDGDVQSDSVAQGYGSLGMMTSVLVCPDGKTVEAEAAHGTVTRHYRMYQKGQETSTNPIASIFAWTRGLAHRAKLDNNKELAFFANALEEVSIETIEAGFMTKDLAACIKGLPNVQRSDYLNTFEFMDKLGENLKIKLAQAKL
Chain of human CB2R (P34972 whole entry): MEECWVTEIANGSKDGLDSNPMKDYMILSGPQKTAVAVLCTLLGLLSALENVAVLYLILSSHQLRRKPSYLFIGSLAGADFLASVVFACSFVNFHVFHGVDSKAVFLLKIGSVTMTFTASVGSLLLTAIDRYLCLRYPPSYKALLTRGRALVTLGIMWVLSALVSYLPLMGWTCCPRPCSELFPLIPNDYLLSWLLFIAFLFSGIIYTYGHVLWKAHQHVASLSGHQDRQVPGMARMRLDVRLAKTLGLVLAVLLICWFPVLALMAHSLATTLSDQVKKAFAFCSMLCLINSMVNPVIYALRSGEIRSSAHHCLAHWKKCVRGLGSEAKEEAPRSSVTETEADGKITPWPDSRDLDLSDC

A word on the EC50: it is the midpoint of the concentration-response curve. By IC50 is commonly meant the midpoint of a concentration-inhibition curve. As for `CC(C)C[C@H]1C(=O)N(Cc2ccc(C(F)(F)F)cc2)c2ccccc2C(=O)N1Cc1ccc(C(F)(F)F)cc1` [Compound 31, (S)-3-Isobutyl-1,4-bis(4-(trifluoromethyl)benzyl)-3,4-dihydro-1H-benzo[e][1,4]diazepine-2,5-dione], the 50% effective concentration (EC50) at 24 h in the series “MTT cell viability assay” was over 40 µM. The IC50 in series [1] (read-out: EC50 or IC50, isocitrate dehydrogenase) stood at 14.9 ± 2.12 µM.
For the compound `CC(C)C[C@@H](C(=O)OCc1ccccc1)N1Cc2ccccc2NC1=O` [Compound 63, Benzyl (S)-4-Methyl-2-(2-oxo-1,4-dihydroquinazolin-3(2H)-yl)pentanoate], in the series “MTT cell viability assay”, the EC50 at 24 h is 21.4 ± 0.78 µM. The “EC50 or IC50, isocitrate dehydrogenase” value in series [1] is on record as “not soluble”. The “functional activity at CB2R (NKH-477-induced cAMP levels)” value at human CB2R is “functional inverse agonist activity”.
